Reference: ChEMBL document CHEMBL1201862, “PubChem BioAssay data set” (2004)
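All cell lines were grown in 96-well plates and treated with compound for 48 hours. GI50 marks 50% less growth.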 Calls of active or inactive are those of the source. No stated cut-off is given here; in the data, active = GI50 up to about 1.1 µM and inactive = higher. *1 amine or outer side, *2 acyl side, *3 side chain or, on linkers, in order; H or OH if unused. Where a SMILES comes first, the peptide text is derived from it. Bridges are numbered along the chain shown (N, C = ends). Roman numbers before positions name the chains, in order. [ ]: non-standard residue; d: D form. Actinocin(1to9) = Cc1c2oc3c(C)ccc(C(=O)[*:2])c3nc-2c(C(=O)[*:1])c(N)c1=O; NMeV = CN[CH](C(=O)O)C(C)C; Sar = CNCC(=O)O

Key:
Experiment in all cases: DTP human tumour cell line panel, 48 h
SW-620 = tested on: SW-620
NCI-H522 = tested on: NCI-H522
HCC 2998 = tested on: HCC 2998
SF-268 = tested on: SF-268
M14 = tested on: M14
SK-MEL-28 = tested on: SK-MEL-28
A498 = tested on: A498
LOX IMVI = tested on: LOX IMVI
DLD-1 = tested on: DLD-1
CCRF-CEM = tested on: CCRF-CEM
LXFL 529 = tested on: LXFL 529
Malme-3M = tested on: Malme-3M
UO-31 = tested on: UO-31
COLO 205 = tested on: COLO 205
EKVX = tested on: EKVX
OVCAR-8 = tested on: OVCAR-8
NCI-H226 = tested on: NCI-H226
RXF 393 = tested on: RXF 393
NCI/ADR-RES = tested on: NCI/ADR-RES
T47D = tested on: T47D

SMILES | GI50 (SW-620) | GI50 (NCI-H522) | GI50 (HCC 2998) | GI50 (SF-268) | GI50 (M14) | GI50 (SK-MEL-28) | GI50 (A498) | GI50 (LOX IMVI) | GI50 (DLD-1) | GI50 (CCRF-CEM) | GI50 (LXFL 529) | GI50 (Malme-3M) | GI50 (UO-31) | GI50 (COLO 205) | GI50 (EKVX) | GI50 (OVCAR-8) | GI50 (NCI-H226) | GI50 (RXF 393) | GI50 (NCI/ADR-RES) | GI50 (T47D)
C#CCN(Cc1ccc2nc(-c3ccccc3)c(Cl)nc2c1)c1ccc(Cl)c(Cl)c1 | > 100 µM (inactive) | > 100 µM (inactive) | 33.5 µM (inactive) | > 100 µM (inactive) | > 100 µM (inactive) | > 100 µM (inactive) | > 100 µM (inactive) | > 100 µM (inactive) | > 100 µM (inactive) | > 100 µM (inactive) | > 100 µM (inactive) | > 100 µM (inactive) | > 100 µM (inactive) | > 100 µM (inactive) | > 100 µM (inactive) | > 100 µM (inactive) |  |  |  | 
COc1cc2cnc3c4cc(OCc5ccccc5)ccc4ccc3c2cc1OC | 54.3 µM (inactive) | 17.3 µM (inactive) | 31.8 µM (inactive) | 19.4 µM (inactive) | 19.8 µM (inactive) | 38.3 µM (inactive) |  | 29.6 µM (inactive) | 18.4 µM (inactive) | 2.81 µM (inactive) | 18.8 µM (inactive) | 36.3 µM (inactive) | 27.2 µM (inactive) | 18.5 µM (inactive) | 58.3 µM (inactive) | 18.2 µM (inactive) | 25.8 µM (inactive) | 12 µM (inactive) |  | 
O=C(NC1C(=O)NNC1c1cccc([N+](=O)[O-])c1)c1ccccc1 (stereo not given) | > 100 µM (inactive) |  | > 100 µM (inactive) | > 100 µM (inactive) | > 100 µM (inactive) | > 100 µM (inactive) |  | > 100 µM (inactive) | > 100 µM (inactive) | > 100 µM (inactive) | > 100 µM (inactive) | > 100 µM (inactive) | > 100 µM (inactive) | > 100 µM (inactive) | > 100 µM (inactive) | > 100 µM (inactive) | > 100 µM (inactive) | > 100 µM (inactive) |  | 
NC(=O)c1cn(C2OC(CO)C(O)C2O)c(=O)[nH]c1=O (stereo not given) | > 100 µM (inactive) | > 100 µM (inactive) |  | > 100 µM (inactive) | > 100 µM (inactive) | > 100 µM (inactive) | > 100 µM (inactive) | > 100 µM (inactive) | > 100 µM (inactive) | > 100 µM (inactive) | > 100 µM (inactive) |  | > 100 µM (inactive) | > 100 µM (inactive) | > 100 µM (inactive) | > 100 µM (inactive) | > 100 µM (inactive) |  |  | 
CCCCCCCCCCCCCCCC(=O)N(CCCCCCCCCCC(=O)O)CC(O)C(O)C(OC1OC(CO)C(O)C(O)C1O)C(O)CO (stereo not given) | 22.1 µM (inactive) | 39.3 µM (inactive) | 21.1 µM (inactive) | 21.3 µM (inactive) | 20.7 µM (inactive) | 18.5 µM (inactive) | > 100 µM (inactive) | 19.5 µM (inactive) |  | 26.5 µM (inactive) |  | 19.5 µM (inactive) | 35.1 µM (inactive) | 18.4 µM (inactive) | 37.6 µM (inactive) | 27.1 µM (inactive) | > 100 µM (inactive) | 48.1 µM (inactive) | 25.7 µM (inactive) | 40.7 µM (inactive)
CO[C@H](C(=O)O[C@H]1C(=O)N2CCC3CCC1C32C)c1ccccc1 (stereo not given in full) | > 100 µM (inactive) | > 100 µM (inactive) | > 100 µM (inactive) | > 100 µM (inactive) | > 100 µM (inactive) | > 100 µM (inactive) |  | > 100 µM (inactive) | > 100 µM (inactive) | > 100 µM (inactive) | > 100 µM (inactive) | > 100 µM (inactive) | > 100 µM (inactive) | > 100 µM (inactive) | > 100 µM (inactive) | > 100 µM (inactive) | > 100 µM (inactive) | > 100 µM (inactive) |  | 
O=C1c2cccnc2-c2nccc3ccnc1c23 | 0.474 µM (active) | 0.163 µM (active) | 1.4 µM (inactive) | 1.11 µM (active) | 1.02 µM (active) | 1.2 µM (inactive) | 5 µM (inactive) | 0.418 µM (active) |  | 0.0309 µM (active) |  | 0.853 µM (active) | 0.726 µM (active) | 0.372 µM (active) | 1.58 µM (inactive) | 0.755 µM (active) | 1.58 µM (inactive) | 1.13 µM (inactive) | 0.294 µM (active) | 0.622 µM (active)
COc1ccc(CC2NC(=O)C(NC(=O)c3c4nc5c(C(=O)NC6C(=O)NC(Cc7ccc(OC)cc7)C(=O)N7CCCC7C(=O)N(C)CC(=O)N(C)C(C(C)C)C(=O)OC6C)ccc(C)c5oc-4c(C)c(=O)c3N)C(C)OC(=O)C(C(C)C)N(C)C(=O)CN(C)C(=O)C3CCCN3C2=O)cc1 (stereo not given) (I: TY(Me)P[Sar][NMeV] / II: TY(Me)P[Sar][NMeV]; ester I:1-I:C, II:1-II:C; linker I:N-II:N via Actinocin(1to9); configuration not given here) | < 0.001 µM (active) | < 0.001 µM (active) | 0.0012 µM (active) | 0.0219 µM (active) | 0.00678 µM (active) | < 0.001 µM (active) | 0.00299 µM (active) | < 0.001 µM (active) |  | < 0.001 µM (active) |  | < 0.001 µM (active) | 0.00822 µM (active) | < 0.001 µM (active) | 0.164 µM (active) | < 0.001 µM (active) | 0.0135 µM (active) | 0.01 µM (active) | 0.48 µM (active) | < 0.001 µM (active)
